Columns and labels:
alpha 1D adrenoceptors = target: T1, alpha 1D adrenoceptors (Homo sapiens, UniProt P25100); assay: Displacement of [3H]Prazosin binding in CHO cells (Eurofins); conditions: 0.2 nM [3H]Prazosin, 60 min, 22° C., human recombinant, read-out: inhibition of binding of specific ligand
T1 construct: host or cells: CHO cells
T1 sequence (P25100 1-572): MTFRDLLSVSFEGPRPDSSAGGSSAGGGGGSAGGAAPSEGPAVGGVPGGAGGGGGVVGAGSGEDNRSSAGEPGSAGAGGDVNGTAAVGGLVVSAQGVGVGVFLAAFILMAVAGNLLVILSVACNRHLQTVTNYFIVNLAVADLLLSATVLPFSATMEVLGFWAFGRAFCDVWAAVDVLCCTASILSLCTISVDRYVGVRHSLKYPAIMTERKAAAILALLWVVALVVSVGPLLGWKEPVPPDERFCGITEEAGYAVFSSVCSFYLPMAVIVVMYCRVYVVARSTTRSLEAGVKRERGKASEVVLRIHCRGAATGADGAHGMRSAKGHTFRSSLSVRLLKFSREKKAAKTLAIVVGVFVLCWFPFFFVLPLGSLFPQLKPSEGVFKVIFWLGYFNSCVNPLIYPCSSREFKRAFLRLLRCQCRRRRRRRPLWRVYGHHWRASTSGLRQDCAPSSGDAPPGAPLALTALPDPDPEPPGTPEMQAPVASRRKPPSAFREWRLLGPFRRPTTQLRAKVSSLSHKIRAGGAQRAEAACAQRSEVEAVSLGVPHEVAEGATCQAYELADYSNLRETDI
Description: (§1) Method. The displacement by compound (II-1) of binding of selective ligands of alpha adrenergic receptors 1D and 2C (0.2 nM [^3H]Prazosin and 2 nM [^3H]RX 821002, respectively) was evaluated for 60 min at 22° C. in CHO cells expressing the human recombinant adrenoceptors (Eurofins).

alpha 2C adrenoceptors = target: T2, alpha 2C adrenoceptors (Homo sapiens, UniProt P18825); assay: Displacement of [3H]RX 821002 binding in CHO cells (Eurofins); conditions: 2 nM [3H]RX 821002, 60 min, 22° C., human recombinant, read-out: inhibition of binding of specific ligand
T2 construct: host or cells: CHO cells
T2 sequence (P18825 1-462): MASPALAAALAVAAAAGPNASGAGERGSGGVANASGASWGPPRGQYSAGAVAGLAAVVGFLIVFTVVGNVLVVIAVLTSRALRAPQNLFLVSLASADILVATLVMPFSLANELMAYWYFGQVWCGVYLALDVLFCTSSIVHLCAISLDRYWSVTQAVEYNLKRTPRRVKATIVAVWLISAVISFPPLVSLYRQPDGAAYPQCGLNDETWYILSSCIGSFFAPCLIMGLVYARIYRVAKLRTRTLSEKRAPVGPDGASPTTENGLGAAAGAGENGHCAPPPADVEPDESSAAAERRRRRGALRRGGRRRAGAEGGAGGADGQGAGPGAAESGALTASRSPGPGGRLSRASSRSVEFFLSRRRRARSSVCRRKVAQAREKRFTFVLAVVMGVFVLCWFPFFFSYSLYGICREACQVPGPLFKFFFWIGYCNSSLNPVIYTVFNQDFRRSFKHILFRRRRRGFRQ
Description: as §1

human OCT2 = target: T3, human OCT2 (Homo sapiens, UniProt O15244); assay: OCT inhibition in transfected cells ([3H]ASP+ uptake); type: cell-based
T3 construct: expressed in transfected cells; host or cells: COS cells
T3 sequence (O15244 1-555): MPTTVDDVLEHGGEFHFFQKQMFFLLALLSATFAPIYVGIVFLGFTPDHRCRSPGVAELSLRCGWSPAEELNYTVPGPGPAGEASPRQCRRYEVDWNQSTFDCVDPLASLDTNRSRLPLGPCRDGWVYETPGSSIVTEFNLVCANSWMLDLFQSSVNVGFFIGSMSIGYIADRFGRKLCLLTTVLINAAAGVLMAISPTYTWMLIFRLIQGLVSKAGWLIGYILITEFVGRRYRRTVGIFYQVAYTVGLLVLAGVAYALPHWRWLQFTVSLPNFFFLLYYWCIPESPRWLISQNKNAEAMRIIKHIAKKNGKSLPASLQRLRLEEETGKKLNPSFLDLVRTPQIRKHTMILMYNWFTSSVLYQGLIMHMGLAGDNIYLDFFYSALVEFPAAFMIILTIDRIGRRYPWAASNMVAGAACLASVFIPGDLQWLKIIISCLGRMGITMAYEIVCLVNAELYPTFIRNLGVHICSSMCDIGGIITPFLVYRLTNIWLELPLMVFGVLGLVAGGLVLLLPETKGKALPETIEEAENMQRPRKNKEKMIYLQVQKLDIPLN
Description: Method. […] Tested concentrations: 1.10^−9; 3.10^−9; 1.10^−8; 3.10^−8; 1.10^−7; 3.10^−7; 1.10^−6; 3.10^−6 mol·L^−1.

COc1ccc2c(c1)C=C/C(=C/c1cc[n+](C(C)C)c3ccccc13)N2C(C)C.[I-] [II-1, (Z)-1-isopropyl-4-((1-isopropyl-6-methoxyquinolin-2(1H)-ylidene)methyl)quinolin-1-ium iodide]
inhibition at 1 µM (alpha 1D adrenoceptors): 69%
inhibition at 1 µM (alpha 2C adrenoceptors): 66%
IC50 less than that of D24 on human and rodent OCTs (human OCT2; hOCT2 IC50 versus literature D24 value): 3 to 4 fold
IC50 (human OCT2; uptake of [3H]ASP+ (5 μM) in COS cells transfected with human OCT2, 20 min, 37° C.): 82 nM

Source: patent publication US11414398B2, “Selective organic cation transporters inhibitors for the treatment of depressive disorders” (priority 2017, dated 2022)
